Assays:
glioblastoma (GBM) = settings: mild hypothyroidism induced by PTU; cited from earlier work
[1] = tested on: Morris 7800 hepatoma neoplasms; settings: PTU 0.1%; cited from earlier work
[2] = tested on: transplantable liver tumor; settings: cited from earlier work
[3] = tested on: chick chorioallantoic membrane (CAM) blood vessel branching; assay: Chorioallantoic membrane (CAM) model of angiogenesis; type: in vivo
Protocol: In vivo neovascularization was examined by methods described previously. 9-12 Ten-day-old chick embryos were purchased from SPAFAS (Preston, Conn.) and incubated at 37° C. with 55% relative humidity. A hypodermic needle was used to make a small hole in the shell concealing the air sac, and a second hole was made on the broad side of the egg, directly over an avascular portion of the embryonic membrane that was identified by candling. A false air sac was created beneath the second hole by the application of negative pressure at the first hole, causing the CAM to separate from the shell. A window approximately 1.0 cm^2 was cut in the shell over the dropped CAM with a small-crafts grinding wheel (Dremel, division of Emerson Electric Co.), allowing direct access to the underlying CAM. […] Sterile disks of No. 1 filter paper (Whatman International) were pretreated with 3 mg/mL cortisone acetate and 1 mmol/L PTU and air dried under sterile conditions. Thyroid hormone, hormone analogs, FGF2 or control solvents, and inhibitors were then applied to the disks and the disks allowed to dry. The disks were then suspended in PBS and placed on growing CAMs. […] At 24 hours, the MAPK cascade inhibitor PD 98059 was also added to CAMs topically by means of the filter disks.
After incubation at 37° C. with 55% relative humidity for 3 days, the CAM tissue directly beneath each filter disk was resected from control and treated CAM samples. Tissues were washed 3× with PBS, placed in 35-mm Petri dishes (Nalge Nunc), and examined under an SV6 stereomicroscope (Zeiss) at X50 magnification. Digital images of CAM sections exposed to filters were collected using a 3-charge-coupled device color video camera system (Toshiba) and analyzed with Image-Pro software (Media Cybernetics). The number of vessel branch points contained in a circular region equal to the area of each filter disk were counted. One image was counted in each CAM preparation, and findings from 8 to 10 CAM preparations were analyzed for each treatment condition (thyroid hormone or analogs, FGF2, FGF2 antibody, PD 98059). In addition, each experiment was performed 3 times. The resulting angiogenesis index is the mean±SEM of new branch points.

ECV304 endothelial cells = assay: FGF2 release from ECV304 endothelial cells (ELISA); type: cell-based
Protocol: ECV304 endothelial cells were cultured in M199 medium supplemented with 10% fetal bovine serum. […] After 72 hours, the supernatants were harvested and assays for FGF performed without dilution using a commercial ELISA system (R&D Systems) (See Davis et al., Circ Res 94:1500-1506 (2004)).

ERK1/2 = assay: MAPK activation in ECV304 cells (nuclear phosphorylated ERK1/2 immunoblot); type: cell-based; settings: for effect on T4-induced ERK1/2 (MAPK) activation: PD 98059 30 μmol/L or CGP41251 100 nmol/L, 30 minutes before T4
Protocol: ECV304 endothelial cells were cultured in M199 medium with 0.25% hormone-depleted serum 13 for 2 days. […] Nuclear fractions were pre-pared from all samples by the method reported previously (see Li et al., Carcinogenesis 29:62-69 (2008)), the proteins separated by polyacrylamide gel electrophoresis, and transferred to membranes for immunoblotting with antibody to phosphorylated ERK 1/2.

SF763 glioblastoma cells = settings: 85 μM, 16 hours at 37° C., cited from earlier work
FGF2 cDNA = assay: RT-PCR of FGF2 in ECV304 cells; type: cell-based; settings: T4 10^−7 mol/L, 6 to 48 hours
Protocol: RNA (1 μg) was subjected to reverse transcription-polymerase chain reaction (RT-PCR) using the Access RT-PCR system (Promega). Total RNA was reverse transcribed into cDNA at 48° C. for 45 minutes, then denatured at 94° C. for 2 minutes. Second-strand synthesis and PCR amplification were performed for 40 cycles with denaturation at 94° C. for 30 s, annealing at 60° C. for 60 s, and extension at 68° C. for 120 s, with final ex-tension for 7 minutes at 68° C. after completion of all cycles. PCR primers for FGF2 were as follows: FGF2 sense strand 5′-[…]-3′ (SEQ ID NO:1), antisense strand 5′ […]-3′ (SEQ ID NO:2); the length of the PCR product was 734 bp. Primers for GAPDH included the sense strand 5′-[…]-3′ (SEQ ID NO:3), and antisense strand 5′-[…]-3′ (SEQ ID NO:4); the length of the PCR product was 218 bp. […] The target bands of the gel were quantified using Lablmage software (Kapelan), and the value for [FGF2/GAPDH]X10 calculated for each time point.

[4] = estimated; cited from earlier work
V-79 cells = settings: reduced from 3.4; cited from earlier work
[5] = cited from earlier work
M21 cells = settings: 20 ug/ml; 0, 5, and 10 Gy; cited from earlier work

CCCc1cc(=O)[nH]c(=S)[nH]1 [PTU, 6-N-propyl-2-thiouracil]
improvement of duration of survival (glioblastoma (GBM)): 3 fold
increase in survival [1]: approximately 1.3 fold
time needed to grow from approximately 270 mm^3 to 900 mm^3 ([2]; 10 Gy of x-rays plus 0.05% PTU, control 6.2, x-rays alone 11.2): 17.8 days
tumor growth rate versus control ([2]; PTU alone): no difference in growth rate

COc1cccc(-c2cc(=O)c3ccccc3o2)c1N [PD 98059]
effect on T3 + T4 stimulated blood vessel branching ([3]; 3 μmol/L PD 98059): completely blocked
effect on FGF2 stimulation of branch formation ([3]; PD 98059 with FGF2 1 μg/mL): effectively blocked
FGF2 (pg/mL/10^6 cells) (ECV304 endothelial cells; T3 + PD 98059 (2 μmol/L)): 28.4 ± 3.2 pg/mL/10^6 cells
FGF2 (pg/mL/10^6 cells) (ECV304 endothelial cells; T3 + PD 98059 (20 μmol/L)): 21.7 ± 3.5 pg/mL/10^6 cells
FGF2 (pg/mL/10^6 cells) (ECV304 endothelial cells; T4 + PD 98059 (2 μmol/L)): 26.5 ± 4.5 pg/mL/10^6 cells
FGF2 (pg/mL/10^6 cells) (ECV304 endothelial cells; T4 + PD 98059 (20 μmol/L)): 23.2 ± 4.8 pg/mL/10^6 cells
effect on T4-induced ERK1/2 (MAPK) activation (ERK1/2): inhibited

CC(C)[C@H]1C(=O)N[C@@H](CCCN=C(N)N)C(=O)NCC(=O)N[C@@H](CC(=O)O)C(=O)N[C@H](Cc2ccccc2)C(=O)N1C [EMD121974]
increase of α (SF763 glioblastoma cells): 4.4 fold
α component in the LQ survival equation (SF763 glioblastoma cells; from approximately 0.04): 0.18 Gy^−1

CO[C@@H]1[C@H](N(C)C(=O)c2ccccc2)C[C@H]2O[C@]1(C)n1c3ccccc3c3c4c(c5c6ccccc6n2c5c31)C(=O)NC4 [CGP41251]
effect on T4-induced ERK1/2 (MAPK) activation (ERK1/2): blocked the effect of the hormone on MAPK activation

N[C@@H](Cc1cc(I)c(Oc2cc(I)c(O)c(I)c2)c(I)c1)C(=O)O [Compound T4, L-thyroxine]
generation of new blood vessels from existing vessels promoted ([3]; 10^−7-10^−9M): two-to three-fold
combined effect of sub-maximal hormone and growth factor ([3]; T4 0.05 μmol/L + FGF2 0.5 μg/mL): additive
stimulation of angiogenesis ([3]; T4, anti-FGF2 experiments (FIG. 5A)): 1.5 fold
time of maximal level of nuclear phosphorylated ERK1/2 (ERK1/2; T4 10^−7 mol/L): 30 min
time to appearance of phosphorylated ERK1/2 in cell nuclei (ERK1/2; T4 10^−7 mol/L): ≤ 15 min
FGF2 cDNA abundance corrected for GAPDH (FGF2 cDNA): increase in abundance of FGF2 cDNA
pKa, COOH (carboxylic acid) group [4]: ~2.0
pKa, NH2 (amino) group [4]: approximately 9.0

NC(=O)c1cccc(N)c1 [Compound 3AB, 3-aminobenzamide]
Dq value (V-79 cells): 1 Gy
inhibition of PLDR [5]: ~70%

CNTO 95: human anti-αv integrin monoclonal antibody
increase in sensitivity (in vitro apoptosis) (M21 cells): 2 fold

Reference: US9839614B2, “Nanoparticle and polymer formulations for thyroid hormone analogs, antagonists, and formulations and uses thereof” (NANOPHARMACEUTICALS LLC, priority 2009, dated 2017)
